Target: T1, Human RORγ Ligand Binding Domain (RORγ-LBD) (Homo sapiens, UniProt P51449)
T1 construct: made in house; host or cells: E. coli BL21(DE3)
T1 sequence (P51449 263-518): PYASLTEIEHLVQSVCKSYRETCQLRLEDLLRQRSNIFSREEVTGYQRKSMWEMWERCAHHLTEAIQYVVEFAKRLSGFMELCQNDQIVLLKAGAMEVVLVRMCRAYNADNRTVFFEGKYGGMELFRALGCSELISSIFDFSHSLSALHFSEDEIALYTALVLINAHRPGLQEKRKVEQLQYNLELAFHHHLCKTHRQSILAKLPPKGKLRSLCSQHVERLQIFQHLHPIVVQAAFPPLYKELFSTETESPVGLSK
Assay: Dual Fluorescence Energy Transfer (FRET) assay
Type: biochemical
Conditions: mean of multiple test results if tested more than once; read-out: pIC50 in the dual FRET assay (converted)
Source text: This assay is based on the knowledge that nuclear receptors interact with cofactors (transcription factors) in a ligand dependent manner. RORγ is a typical nuclear receptor in that it has an AF2 domain in the ligand binding domain (LBD) which interacts with co-activators. The sites of interaction have been mapped to the LXXLL motifs in the co-activator SRC1(2) sequences. Short peptide sequences containing the LXXLL motif mimic the behavior of full-length co-activator.
The assay measures ligand-mediated interaction of the co-activator peptide with the purified bacterial-expressed RORγ ligand binding domain (RORγ-LBD) to indirectly assess ligand binding. RORγ has a basal level of interaction with the co-activator SRC1(2) in the absence of ligand, thus it is possible to find ligands that inhibit or enhance the RORγ/SRC1(2) interaction.
Human RORγ Ligand Binding Domain (RORγ-LBD) was expressed in E. coli strain BL21(DE3) as an amino-terminal polyhistidine tagged fusion protein. DNA encoding this recombinant protein was sub-cloned into a modified pET21a expression vector (Novagen). […]
Approximately 50 g E. coli cell pellet was resuspended in 300 mL of lysis buffer (30 mM imidazole pH 7.0 and 150 mM NaCl). […] After washing to baseline absorbance with the equilibration buffer, the column was developed with a gradient from 30 to 500 mM imidazole pH 7.0. […]

IC50: ~100 nM
Structure (SMILES): Cc1ncc(C(=O)Nc2cc(Cl)cc(CN3CCN(C(=O)CC4CC4)[C@@H](C)C3)c2C)cc1F [Example 80, (S)—N-(5-chloro-3-((4-(2-cyclopropylacetyl)-3-methylpiperazin-1-yl)methyl)-2-methylphenyl)-5-fluoro-6-methylnicotinamide]

— patent US9902735B2, “Heteroaryl substituted compounds as RORγ inhibitors” (GlaxoSmithKline Intellectual Property Developement Limited, priority 2014, dated 2018)
